Data as given in patent US20200024278A1, “COMPOSITION COMPRISING ANTIBIOTIC COMPOUND AND AN HETEROCYCLIC COMPOUND AND THEIR USE IN PREVENTING OR TREATING BACTERIAL INFECTIONS” (MUTABILIS, priority 2016, published 2020).
Counter-ions that a name gives are not always drawn.

Assays:
Experiment in all cases: MIC, broth microdilution (CLSI), substance alone or ATB combined with compound at 4 or 8 μg/mL
ABA UFR161 = format: cell-based, A. baumannii; details: Acinetobacter baumannii, substance alone, read-out: MIC
Outline: (§1)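 CLSI M7-A7 broth microdilution. ca-MHB, 5·10^5 CFU/mL log-phase cells, 16-20 h, 35° C, ambient air. Fosfomycin wells + 25 μg/ml glucose-6-phosphate. Visual MIC read.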

ABA 19606 = format: cell-based, A. baumannii; details: Acinetobacter baumannii, substance alone, read-out: MIC
Outline: as §1

ECO UFR39 = format: cell-based, E. coli; details: ECO UFR39; for MIC ATB combined with Example: Example @8 μg/ml
Outline: as §1

ECO 190317 = format: cell-based, E. coli; details: ECO 190317; for MIC ATB combined with Example: Example @8 μg/ml
Outline: as §1

PAE UFR90 = format: cell-based, P. aeruginosa; details: PAE UFR90; for MIC ATB combined with Example: Example @8 μg/ml
Outline: as §1

PAE 105250 = format: cell-based, P. aeruginosa; details: PAE 105250; for MIC ATB combined with Example: Example @8 μg/ml
Outline: as §1

PAE UFR48 = format: cell-based, P. aeruginosa; details: PAE UFR48; for MIC ATB combined with Example: Example @8 μg/ml
Outline: as §1

KPN BAA-1898 = format: cell-based, K. pneumoniae; details: KPN BAA-1898; for MIC ATB combined with Example: Example @8 μg/ml
Outline: as §1

KPN UFR42 = format: cell-based, K. pneumoniae; details: KPN UFR42; for MIC ATB combined with Example: Example @8 μg/ml
Outline: as §1

KPN 6299 = format: cell-based, K. pneumoniae; details: Example @8 μg/ml
Outline: as §1

SPN 49619 = format: cell-based, S. pneumoniae; details: SPN 49619; for MIC ATB combined with Example: Example @8 μg/ml
Outline: as §1

SAU 29213 = format: cell-based, S. aureus; details: for MIC ATB combined with Example: SAU 29213, Example @8 μg/ml
Outline: as §1

ECL P99 = format: cell-based, E. cloacae; details: ECL P99; for MIC ATB combined with Example: Example @8 μg/ml
Outline: as §1

[1] = Escherichia coli, substance alone, read-out: MIC
[2] = Pseudomonas aeruginosa, substance alone, read-out: MIC

MIC (ABA UFR161): > 32 µg/mL
MIC (ABA 19606): 32 µg/mL
MIC ATB combined with Example (ECO UFR39; ATB ATM): <=0.031 μg/mL
MIC ATB combined with Example (ECO UFR39; ATB FEP): <=0.031 μg/mL
MIC ATB combined with Example (ECO UFR39; ATB FOS): <0.125 µg/mL
MIC ATB combined with Example (ECO UFR39; ATB MEM): <0.031 µg/mL
MIC ATB combined with Example (ECO UFR39; ATB PIP): <0.031 µg/mL
MIC (ECO UFR39; [1]): 2 µg/mL
MIC ATB combined with Example (ECO 190317; ATB ATM): <0.031 µg/mL
MIC ATB combined with Example (ECO 190317; ATB FEP): <0.031 µg/mL
MIC ATB combined with Example (ECO 190317; ATB FOS): <0.125 µg/mL
MIC ATB combined with Example (ECO 190317; ATB MEM): <0.031 µg/mL
MIC ATB combined with Example (ECO 190317; ATB PIP): <0.031 µg/mL
MIC (ECO 190317; [1]): 0.5 µg/mL
MIC ATB combined with Example (PAE UFR90; ATB ATM): <0.031 µg/mL
MIC ATB combined with Example (PAE UFR90; ATB FEP): <0.031 µg/mL
MIC ATB combined with Example (PAE UFR90; ATB FOS): <0.125 µg/mL
MIC ATB combined with Example (PAE UFR90; ATB MEM): <0.031 µg/mL
MIC ATB combined with Example (PAE UFR90; ATB PIP): <0.031 µg/mL
MIC (PAE UFR90; [2]): 4 µg/mL
MIC ATB combined with Example (PAE 105250; ATB ATM): <0.031 µg/mL
MIC ATB combined with Example (PAE 105250; ATB FEP): <0.031 µg/mL
MIC ATB combined with Example (PAE 105250; ATB FOS): <0.125 µg/mL
MIC ATB combined with Example (PAE 105250; ATB MEM): <0.031 µg/mL
MIC ATB combined with Example (PAE 105250; ATB PIP): <0.031 µg/mL
MIC (PAE 105250; [2]): 4 µg/mL
MIC ATB combined with Example (PAE UFR48; ATB ATM): <0.031 µg/mL
MIC ATB combined with Example (PAE UFR48; ATB FEP): <0.031 µg/mL
MIC ATB combined with Example (PAE UFR48; ATB FOS): <0.125 µg/mL
MIC ATB combined with Example (PAE UFR48; ATB MEM): <0.031 µg/mL
MIC ATB combined with Example (PAE UFR48; ATB PIP): <0.031 µg/mL
MIC (PAE UFR48; [2]): 4 µg/mL
MIC ATB combined with Example (KPN BAA-1898; ATB ATM): <=0.031 μg/mL
MIC ATB combined with Example (KPN BAA-1898; ATB FEP): <=0.031 μg/mL
MIC ATB combined with Example (KPN BAA-1898; ATB FOS): 2 µg/mL
MIC ATB combined with Example (KPN BAA-1898; ATB MEM): <=0.031 μg/mL
MIC ATB combined with Example (KPN BAA-1898; ATB PIP): <=0.031 μg/mL
MIC (KPN BAA-1898; Klebsiella pneumoniae, BAA1898, substance alone, read-out: MIC): 16 µg/mL
MIC ATB combined with Example (KPN UFR42; ATB ATM): 0.063 µg/mL
MIC ATB combined with Example (KPN UFR42; ATB FEP): <=0.031 μg/mL
MIC ATB combined with Example (KPN UFR42; ATB FOS): 8 µg/mL
MIC ATB combined with Example (KPN UFR42; ATB MEM): >32 µg/mL
MIC ATB combined with Example (KPN UFR42; ATB PIP): >32 µg/mL
MIC (KPN UFR42; Klebsiella pneumoniae, substance alone, read-out: MIC): > 32 µg/mL
MIC ATB combined with Example (KPN 6299; ATB ATM): <=0.031 μg/mL
MIC ATB combined with Example (KPN 6299; ATB FEP): 0.063 µg/mL
MIC ATB combined with Example (KPN 6299; ATB FOS): 32 µg/mL
MIC ATB combined with Example (KPN 6299; ATB MEM): 0.063 µg/mL
MIC ATB combined with Example (KPN 6299; ATB PIP): 1 µg/mL
MIC ATB combined with Example (SPN 49619; ATB ATM): <0.031 µg/mL
MIC ATB combined with Example (SPN 49619; ATB FEP): <0.031 µg/mL
MIC ATB combined with Example (SPN 49619; ATB FOS): <0.125 µg/mL
MIC ATB combined with Example (SPN 49619; ATB MEM): <0.031 µg/mL
MIC ATB combined with Example (SPN 49619; ATB PIP): <0.031 µg/mL
MIC (SPN 49619; Streptococcus pneumoniae, substance alone, read-out: MIC): 1 µg/mL
MIC ATB combined with Example (SAU 29213; ATB ATM): >32 µg/mL
MIC ATB combined with Example (SAU 29213; ATB FEP): 0.5 µg/mL
MIC ATB combined with Example (SAU 29213; ATB FOS): <=0.125 μg/mL
MIC ATB combined with Example (SAU 29213; ATB MEM): <=0.031 μg/mL
MIC ATB combined with Example (SAU 29213; ATB PIP): 1 µg/mL
MIC (SAU 29213; Staphylococcus aureus, substance alone, SAU 29213 (MSSA 29213), read-out: MIC): 32 µg/mL
MIC ATB combined with Example (ECL P99; ATB ATM): <0.031 µg/mL
MIC ATB combined with Example (ECL P99; ATB FEP): <0.031 µg/mL
MIC ATB combined with Example (ECL P99; ATB FOS): <0.125 µg/mL
MIC ATB combined with Example (ECL P99; ATB MEM): <0.031 µg/mL
MIC ATB combined with Example (ECL P99; ATB PIP): <0.031 µg/mL
MIC (ECL P99; Enterobacter cloacae, substance alone, read-out: MIC): 2 µg/mL
SMILES: NCCCn1c2c(sc1=O)C1CN(C2)C(=O)N1OS(=O)(=O)O (stereo not shown) [Example 10, [5-(3-aminopropyl)-4,9-dioxo-3-thia-5,8,10-triaza-tricyclo[6.2.1.0^2,6]undec-2(6)-en-10-yl] hydrogen sulfate]
